Data published in paper PMC9763021, “Comprehensive Assessment of Biomolecular Interactions of Morpholine-Based Mixed Ligand Cu(II) and Zn(II) Complexes of 2,2′-Bipyridine as Potential Anticancer and SARS-CoV-2 Agents: A Synergistic Experimental and Structure-Based Virtual Screening” (Bioinorganic Chemistry and Applications, 2022).

Experiments:
[1] = tested on: CT-DNA; test: DNA cleavage by gel electrophoresis in H2O2 environment; type: biochemical, calf thymus; settings: DNA + H2O2, Tris-HCl pH 7.4, agarose gel
Method: The characteristics were examined of all substances along with DNA containing H2O2 and Tris-HCl buffer solution (pH: 7.4). The tank solution's gel layer was lifted out after the experiment was finished and put in front of a UV transilluminator. Additionally, each band lane was scrutinized with control (DNA + H2O2).
Using the gel electrophoresis method, the DNA nuclease properties for all samples were assessed under the H2O2 environment. The examined DNA nuclease efficacy for all complexes (1a-2a) was contrasted with free ligand (HL) and CT-DNA alone. The raw data for electrophoretic gels and blots were also enclosed in the electronic supplementary file (Figure S15). In Figure 1, no substantial nuclease activity can be seen in the control (lane 1; DNA + H2O2) even after a lot of time has passed and the free ligand (HL) (lane: 2) was monitored as immobile in an H2O2 environment. […] Furthermore, ROS include O2^•−, H2O2, OH^•, ROOH, ROO^•, HOCl, and ^1O2 (singlet oxygen) and ozone (O3), which play essential roles in living systems. Consequently, it has commonly been acknowledged that ROS plays a dual physiological role in controlling a variety of illnesses as well as cellular homeostasis (self-regulating processes such as thermoregulation, blood glucose regulation, calcium/potassium homeostasis, and osmoregulation). […] Additionally, it is widely known that NADPH oxidase generates reactive oxygen species as a portion of its antibacterial effect on phagocytic cells. Nevertheless, these types of enzymes seem to be present in a variety of other cells as well and may have significant signalling pathway functions. When noncarcinogenic toxicity events occur, ROS has the ability to alter cell function as well as affect the genes of cancer at several levels. OH^• can attack DNA, proteins, and lipids due to its high reactivity among ROS. The hydroxyl radical is a key participant in free radical-mediated hazardous reactions because of its great reactivity. The free radicals are also essential for the redox regulation of many cellular signalling pathways and proper cellular functions. […]

[2] = tested on: calf thymus deoxyribonucleic acid; test: DNA binding by viscometric (hydrodynamic) technique
Method: The titrations were performed for all compounds including EB (control) at 20, 40, 60, 80, and 100 μM concentrations. In the Ostwald viscometer, these substances were also separately treated with the calf thymus deoxyribonucleic acid solution (100 μM).
Hydrodynamic findings can be utilized to assess the alteration of DNA length and afford details on the binding tendency between small molecules and biomolecules. As a result of their sensitivity to DNA contour length changes, which implies that the average distance between each monomer (cl = 0.338 nm/bp for B-form DNA), the DNA binding properties of all test compounds were further validated by this method. According to the Lerman concept, interactions between small molecules and deoxyribonucleic acid via covalent and noncovalent bindings are often possible. When a chemical substance interacts with the deoxyribonucleic acid double helix, the contour length of DNA increases via intercalation and leads to an increase in the absolute viscosity. Meanwhile, if DNA viscosity is not affected during interactions, which leads to the responsible for the major/minor groove binding due to H-bond/Van der Waals interactions, electrostatic, partial, or nonclassical interaction modes. Therefore, analyzing the binding modes provides additional support for the findings as well as a crucial aspect of the conventional intercalation concept. In this case, it was observed that the absolute viscosity increased consistently along with the concentration of each substance at the fixed DNA concentration. The DNA must extend to facilitate the binding of ligands, which causes a considerable rise in DNA viscosity while small molecules intercalate into the DNA helix. According to equation (12), an increase in relative viscosity denotes an intercalation-induced lengthening of the deoxyribonucleic acid base pair. While adhering to the principle of excluding the nearest neighbors, intercalation entails inserting a planar molecule into a DNA base pair without rupturing the hydrogen bonds that hold the base pairs together. This causes a diminution in the DNA helical twist and an extension of the DNA. Moreover, a molecule can be presumed to bind to deoxyribonucleic acid by intercalation between base pairs if it causes lengthening and unwinding of the deoxyribonucleic acid base pairs. In this case, the relative viscosity of DNA gradually increases, while the […]. Moreover, the affinity interactions and their slope values were observed from the relative specific viscosity (η⁄η0)^1/3 plotted straight line contrasting [Compound]/[DNA], and absolute specific viscosity of deoxyribonucleic acid in the absence or presence of samples was evaluated using equation (12) (Table 3). […] The evaluated slope findings were in the subsequent sequence: (EB) 1.215 > (1a) 0.915 > (2a) 0.630 > (HL) 0.490 (Figure S21 and Table 3). […] Due to the existence of the 2,2′-bipyridine and morpholine-fused aromatic planar systems, compounds can interact with deoxyribonucleic acid robustly via intercalation. The outcomes were excellent in accordance with the observed outcomes of absorption spectral properties.(11) η/η0^1/3=tcomplex−t0/t0/tDNA−t0/t0, where η and η0 are represented as specific viscosity of DNA in the presence complex and specific viscosity of DNA alone, and t0, tDNA, and tcomplex are represented as the average flow time of the Tris-HCl buffer solution, the average flow time of DNA alone solution, and the average flow time of DNA interacted with the samples, respectively. Error limit is ±2.5% (P < 0.025).

| Structure (SMILES) | DNA cleavage (nuclease activity) [1] | Slope of (η/η0)^1/3 vs [Compound]/[DNA] [2] | Relative specific viscosity (η/η0)^1/3 ([2]; [complex]/[DNA] = 0.2) | Relative specific viscosity (η/η0)^1/3 ([2]; [complex]/[DNA] = 0.4) | Relative specific viscosity (η/η0)^1/3 ([2]; [complex]/[DNA] = 0.6) | Relative specific viscosity (η/η0)^1/3 ([2]; [complex]/[DNA] = 0.8) | Relative specific viscosity (η/η0)^1/3 ([2]; [complex]/[DNA] = 1.0) |
| --- | --- | --- | --- | --- | --- | --- | --- |
| [Cu+2].[O-]c1ccccc1N=Cc1ccc(N2CCOCC2)cc1.[O-]c1ccccc1N=Cc1ccc(N2CCOCC2)cc1.c1ccc(-c2ccccn2)nc1 [(1a), [Cu(L)2(bpy)]] | complete DNA cleavage | 0.915 | 0.88 | 1.11 | 1.22 | 1.38 | 1.66 |
| Oc1ccccc1N=Cc1ccc(N2CCOCC2)cc1 [(HL), 2-(4-morpholinobenzylideneamino)phenol] | immobile | 0.490 | 0.61 | 0.67 | 0.75 | 0.85 | 1.01 |
| [O-]c1ccccc1N=Cc1ccc(N2CCOCC2)cc1.[O-]c1ccccc1N=Cc1ccc(N2CCOCC2)cc1.[Zn+2].c1ccc(-c2ccccn2)nc1 [(2a), [Zn(L)2(bpy)]] | partially cleaves DNA | 0.630 | 0.74 | 0.81 | 0.87 | 1.03 | 1.26 |
